In patent US20250320227A1, “MACROCYCLIC OREXIN RECEPTOR AGONISTS AND USES THEREOF” (Jazz Pharmaceuticals Ireland Limited, priority 2022, published 2025):

Target: T1, human recombinant OX2 (hOX2) receptors expressed in CHO cells (Homo sapiens, UniProt O43614)
T1 construct: host or cells: CHO cells (hOX2-CHO)
T1 sequence (O43614 1-444): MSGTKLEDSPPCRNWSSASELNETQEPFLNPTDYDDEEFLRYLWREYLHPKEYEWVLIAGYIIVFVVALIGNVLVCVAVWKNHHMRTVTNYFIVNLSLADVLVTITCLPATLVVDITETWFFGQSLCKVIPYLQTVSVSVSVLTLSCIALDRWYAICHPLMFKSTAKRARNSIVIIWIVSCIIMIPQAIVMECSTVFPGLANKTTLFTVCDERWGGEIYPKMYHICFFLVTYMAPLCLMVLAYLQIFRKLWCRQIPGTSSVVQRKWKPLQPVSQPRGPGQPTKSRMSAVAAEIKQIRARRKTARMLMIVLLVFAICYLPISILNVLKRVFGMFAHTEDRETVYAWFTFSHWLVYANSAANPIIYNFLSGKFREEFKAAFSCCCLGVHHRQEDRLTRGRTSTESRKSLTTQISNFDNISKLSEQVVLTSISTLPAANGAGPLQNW
Assay: IP-1 accumulation assay (IP-One HTRF) in hOX2-CHO cells
Type: cell-based
Conditions: 60 min incubation at 37° C., mean of at least two independent experiments, read-out: EC50_OX2R Category
Procedure: The accumulation of Inositol-1 Monophosphate (IP-1) was measured using IP-One HTRF® Terbium cryptate based assay (Cisbio) in human recombinant OX1 (hOX1) and at OX2 (hOX2) receptors expressed in CHO cells (DiscoverX) according to the manufacturer's instructions for cells tested in suspension.
hOX1-CHO and hOX2-CHO cells were seeded into white 384-well plates at a density of 20,000 cells/well in Hank's Balanced Salt Solution (HBSS) containing 20 mM HEPES pH 7.4, 50 mM, LiCl and 0.1% and Bovine Serum Albumin (BSA).
Compounds of disclosure were tested in an 11 points concentration response curve (CRC) serially diluted in neat DMSO at 200 fold concentrations and added by Echo acoustic liquid handling (Labcyte) to the cells (0.5% DMSO final in the assay). After 60 min of incubation at 37° C. detection reagents, IP1-d2 tracer and anti-IP1-cryptate were diluted in lysis buffer according to the manufacturer's descriptions and added to the cells.
Following 60 min incubation at room temperature, time-resolved fluorescence (HTRF) was measured at 615 nm and 665 nm by Envision Multilabel reader (Perkin Elmer) and the HTRF ratio (A665/A615×10^4) was calculated.
The IP-1 accumulation response was expressed as percentage of the maximal OX-A response.
Curve fitting and EC50 estimations were carried out using a four-parameter logistic model using XLfit Software. Mean data of EC50 are calculated from at least two independent experiments performed in duplicates

| Structure (SMILES) | EC50 [nM] |
| --- | --- |
| O=C1COCC2(CCN3C(=O)CCOc4ccccc4[C@H]4CC[C@H](CC4)OCC32)N1 (mixture of isomers) [Example 1, rel-(1's,3S,16′R,19′s)-8′,18′-dioxa-12′-azaspiro[morpholine-3,15′-tetracyclo[17.2.2.0^2,70.0^12,16]tricosane]-2′(7′),3′,5′-triene-5,11′-dione] | < 100 |
| O=C1COCC2(CCN3C(=O)CCCOc4ccccc4[C@H]4CC[C@H](CC4)OCC32)N1 (mixture of isomers) [Example 2, rel-(1′s,3S, 17′R,20′s)-8′,19′-dioxa-13′-azaspiro[morpholine-3, 16′-tetracyclo [18.2.2.0^2,70.0^13,17]tetracosane]-2′(7′),3′,5′-triene-5,12′-dione] | 1000 to 10000 |
| O=C1COCC2(CCN3C(=O)C4(CC4)COc4ccccc4[C@H]4CC[C@H](CC4)OCC32)N1 (mixture of isomers) [Example 7, Rel-(1′s, 15'S,16′R,19′s)-dispiro[cyclopropane-1,10′-[8,18]dioxa-[12]azatetracyclo[17.2.2.0^2,70.0^12,16]tricosane-15′,3″-morpholine]-2′(7′),3′,5′-triene-5″,11′-dione] | 1000 to 10000 |
| O=C1COCC2(CCN3C(=O)CCOc4cccc(F)c4[C@H]4CC[C@H](CC4)OCC32)N1 (mixture of isomers) [Example 10, Rel-(1′s,3S,16′R,19′s)-3′-fluoro-8′,18′-dioxa-12′-azaspiro[morpholine-3,15′-tetracyclo[17.2.2.0^2,70.0^12,16]tricosane]-2′(7′),3′,5′-triene-5,11′-dione] | < 100 |
| O=C1COCC2(CCN3C(=O)CCOc4c(F)cc(F)cc4[C@H]4CC[C@H](CC4)OCC32)N1 (mixture of isomers) [Example 11, Rel-(1′s,3S,16′R,19′s)-4′,6′-difluoro-8′,18′-dioxa-12′-azaspiro[morpholine-3,15′-tetracyclo[17.2.2.0^2,70.0^12,16]tricosane]-2′(7′),3′,5′-triene-5,11′-dione] | 100 to 1000 |
| C[C@@H]1CC2(COCC(=O)N2)C2CO[C@H]3CC[C@H](CC3)c3ccccc3OCCCC(=O)N21 (mixture of isomers) [Example 14, (1′s,14′R,20's)-14′-methyl-8′,19′-dioxa-13′-azaspiro[morpholine-3,16′-tetracyclo[18.2.2.0^2,70.0^13,17]tetracosane]-2′(7′),3′,5′-triene-5,12′-dione] | < 100 |
| C[C@@H]1CC2(COCC(=O)N2)C2Cc3cccc(c3F)-c3ccccc3CCCC(=O)N21 (mixture of isomers) [Example 28] | 1000 to 10000 |
| C[C@@H]1CC2(COCC(=O)N2)C2Cc3cccc(c3F)-c3ccccc3CCCCC(=O)N21 (mixture of isomers) [Example 29, (14′R)-23′-fluoro-14′-methyl-13′-azaspiro[morpholine-3,16′tetracyclo-[17.3.1.0^2,70.0^13,17]tricosane]-1′(23′),2′(7′),3′,5′,19′,21′-hexaene-5,12′-dione] | > 10000 |
| C[C@@H]1CC2(COCC(=O)N2)C2Cc3cccc(c3F)-c3ccccc3OCCN(C)C(=O)N21 (mixture of isomers) [Example 30, (14′R)-23′-fluoro-11′,14′-dimethyl-8′-oxa-11′,13′-diazaspiro[morpholine-3,16′-tetracyclo[17.3.1.0^2,70.0^13,17]tricosane]-1′(23′),2′(7′),3′,5′,19′,21′-hexaene-5,12′-dione] | 1000 to 10000 |
| C[C@@H]1CC2(COCC(=O)N2)C2Cc3cccc(c3F)-c3ccccc3OCCCN(C)C(=O)N21 (mixture of isomers) [Example 31, (15′R)-24′-fluoro-12′, 15′-dimethyl-8′-oxa-12′, 14′-diazaspiro[morpholine-3,17′-tetracyclo[18.3.1.0^2,70.0^14,18]tetracosane]-1′(24′),2′(7′),3′,5′,20′,22′-hexaene-5,13′-dione] | > 10000 |
| O=C1COCC2(CCCN3C(=O)CCOc4ccc(F)cc4[C@H]4CC[C@H](CC4)OCC32)N1 (mixture of isomers) [Example 49, Rel-(1′s,3S,17′R,20′s)-4′-fluoro-8′,19′-dioxa-12′-azaspiro[morpholine-3,16′-tetracyclo[18.2.2. 0^2,^7.0^12,^17]tetracosane]-2′(7′),3′,5′-triene-5,11′-dione] | < 100 |
| O=C1COCC2(CCCN3C(=O)OCCOc4cccc(c4)[C@H]4CC[C@H](CC4)OCC32)N1 (mixture of isomers) [Example 53, Rel-(1′s,3S,17′R,20's)-7′,10′,19′-trioxa-12′-azaspiro[morpholine-3,16′-tetracyclo[18.2.2.1^2,60.0^12,17]pentacosane]-2′(25′),3′,5′-triene-5,11′-dione] | < 100 |
| O=C1COCC2(CCCN3C(=O)OCCCOc4cccc(c4)[C@H]4CC[C@H](CC4)OCC32)N1 (mixture of isomers) [Example 54, Rel-(1′s,3S,18′R,21′s)-7′,11′,20′-trioxa-13′-azaspiro[morpholine-3,17′-tetracyclo[19.2.2.1^2,60.0^13,18]hexacosane]-2′(26′),3′,5′-triene-5,12′-dione] | < 100 |
| O=C1COc2ccccc2[C@H]2CC[C@H](CC2)OCC2N1CCCC21CCCS(=O)(=O)N1 (mixture of isomers) [Example 59, Rel-(1s, 15R,16R,19s)-8,18-dioxa-11-azaspiro[tetracyclo[17.2.2.0^2,70.0^11,16]tricosane-15,3′-[1λ^6,2]thiazinane]-2 (7),3,5-triene-1′,1′,10-trione] | < 100 |

Next, values leading:

| EC50 [nM] | Structure (SMILES) |
| --- | --- |
| 1000 to 10000 | O=C1COCC2(CCN3C(=O)COc4ccccc4[C@H]4CC[C@H](CC4)OCC32)N1 (mixture of isomers) [Example 3, rel-(1′s,3S, 15′R,18′s)-8′,17′-dioxa-11′-azaspiro[morpholine-3,14′-tetracyclo[16.2.2.0^2,70.0^11,15]docosane]-2′(7′),3′,5′-triene-5,10′-dione] |
| > 10000 | O=C1CCOc2ccccc2[C@H]2CC[C@H](CC2)OCC2N1CCC21COCCN1 (mixture of isomers) [Example 9, Rel-(1′s,3S,16′R,19′s)-8′,18′-dioxa-12′-azaspiro[morpholine-3,15′-tetracyclo[17.2.2.0^2,70.0^12,16]tricosane]-2′,4′,6′-trien-11′-one] |
| > 10000 | O=C1COCC2(CCCN3C(=O)CCOc4cccnc4[C@H]4CC[C@H](CC4)OCC32)N1 (mixture of isomers) [Example 51, Rel-(1′s,3S,17′R,20′s)-8′,19′-dioxa-3′,12′-diazaspiro [morpholine-3,16′-tetracyclo[18.2.2. 0^2,^7.0^12,^17]tetracosane]-2′(7′),3′,5′-triene-5,11′-dione] |
| 1000 to 10000 | O=C1COCC2(CCCN3C(=O)OCCc4ccccc4[C@H]4CC[C@H](CC4)OCC32)N1 (mixture of isomers) [Example 52, Rel-(1′s,3S,17′R,20's)-10′,19′-dioxa-12′-azaspiro[morpholine-3,16′-tetracyclo [18.2.2.0^2,70.0^12,17]tetracosane]-2′(7′), 3′,5′-triene-5,11′-dione] |
| < 100 | O=C1NC2(CCCN3C(=O)COc4ccccc4[C@H]4CC[C@H](CC4)OCC32)CCO1 (mixture of isomers) [Example 57, Rel-(1′s,4R,16′R,19′s)-8′,18′-dioxa-11′-azaspiro[1,3-oxazinane-4,15′-tetracyclo[17.2.2.0^2,70.0^11,16]tricosane]-2′(7′),3′,5′-triene-2,10′-dione] |
| < 100 | O=C1CCCC2(CCCN3C(=O)COc4ccccc4[C@H]4CC[C@H](CC4)OCC32)N1 (mixture of isomers) [Example 58, Rel-(1′s,2S,16′R,19′s)-8′,18′-dioxa-11′-azaspiro[piperidine-2,15′-tetracyclo-[17.2.2.0^2,70.0^11,16]tricosane]-2′(7′),3′,5′-triene-6,10′-dione] |
| 1000 to 10000 | O=C1COCC2(CCCN3C(=O)CCCOc4ccccc4-c4cccc(c4F)CC32)N1 (racemic) [Example 61, Rel-(3S,18′S)-24′-fluoro-8′-oxa-13′-azaspiro[morpholine-3,17′-tetracyclo[18.3.1.0^2,70.0^13,18]tetracosane]-1′(24′),2′(7′), 3′,5′,20′,22′-hexaene-5,12′-dione] |
| > 10000 | O=C1COCC2(CCCN3C(=O)CCCCc4ccccc4-c4cccc(c4F)CC32)N1 (racemic) [Example 62, Rel-(3S, 18′S)-24′-fluoro-13′-azaspiro[morpholine-3,17′-tetracyclo[18.3.1.0^2,70.0^13,18]tetracosane]-1′(24′),2′(7′),3′,5′,20′,22′-hexaene-5,12′-dione] |
| 1000 to 10000 | CN1CCOc2ccccc2-c2cccc(c2F)CC2N(CCCC23COCC(=O)N3)C1=O (racemic) [Example 63, Rel-(3S,18′S)-24′-fluoro-11′-methyl-8′-oxa-11′,13′-diazaspiro[morpholine-3,17′-tetracyclo[18.3.1.0^2,70.0^13,18]tetracosane]-1′(24′),2′(7′),3′,5′,20′,22′-hexaene-5,12′-dione] |
